From patent US20080200438A1, “Treatment of Autoimmune Diseases” (priority 2005, published 2008)
“Also recorded” adds a separate entry of the source.

Columns and labels:
[1] = system: acute experimental autoimmune encephalomyelitis (EAE); assay: Acute EAE model; format: in vivo, Lewis rat; settings: for Prevention of disease symptoms in the acute EAE model: doses between 0.1 and 10 mg/kg/day, oral
chronic-relapsing EAE = assay: Chronic-relapsing EAE model; format: in vivo, Lewis rat; settings: 0.3 mg/kg/day orally, day 16 to day 31
From the text: Animal models: The monophasic model of acute experimental autoimmune encephalomyelitis (EAE) and the chronic relapsing form are considered to be instructive animal models for multiple sclerosis. EAE can be induced in susceptible animals by a single injection of CNS tissue or MBP emulsified in complete Freund's adjuvant into the base of the tail. A monophasic acute paralytic disease appears in susceptible rat strains, e.g., Lewis, Wistar rat, about 8-11 days post-sensitization. The symptomatic rats recover within the following 7 days, but in other species the attack is usually lethal. In the chronic relapsing disease models rats undergo one to three relapses following the acute disease bout. These relapses are usually from very mild to severe and are observed within 20-100 days after the acute bout.
Chronic-relapsing EAE is induced by injecting an emulsion of guinea pig spinal cord in complete Freund's adjuvant in the hind paws of Lewis rats. Six to ten rats per group are used and somatic symptoms are judged daily on a scale of 0-3. The number of diseased animals as well as the time of onset of the disease is recorded. […] The statistical significance between treated and untreated groups is analyzed on each day using ANOVA analysis of variance followed by Dunn's multiple comparisons. […]

chronic EAE = assay: Chronic EAE model; format: in vivo, DA rat
Experimental: Induction of AEA in DA rat is induced as described by Lorentzen et al, 1995, J. Neuroimmunol.; 63(2):193-205 and Adelmann et al, 1995, J. Neuroimmunol.; 63(1):17-27. Briefly, rats are immunized with a mixture of DA rat brain and DA rat and bovine spinal cord homogenate supplemented with 0.02 μg/ml purified recombinant rat MOG protein. The mixture is homogenized and then mixed 1:1 with complete Freund's adjuvant containing 4 mg/ml M. tuberculosis H37RA(CFA). The resultant mixture is then homogenized using a Polytron PT3100 homogenizer (Kinematica, Lucerne, Switzerland). Rats are then injected subcutaneously at the dorsal root of tail with a single injection of 200 μl antigen/CFA. The resultant chronic disease is evaluated using numeric scale of progressive paralysis: 0, no paralysis; 1, loss of tail tonicity; 2, hindlimb weakening or ataxia; 3, hindlimb paralysis with or without urinary incontinence; 4, hindlimb and forelimb paralysis; 5, moribund or death. Clinical scores are evaluated on a daily basis, while body weight is determined every other day. […] Treatment of animals begins at the peak clinical disease on the 12th day and continues daily the 33rd day post-immunization (total 22 days). The test compound or vehicle (for the control groups) is administered orally daily.

[2] = 1 mg/kg p.o. daily days 0-13, female Lewis rats
[3] = 0.1 mg/kg p.o. daily days 0-13, female Lewis rats
[4] = 0.3 mg/kg p.o. daily days 0-13, female Lewis rats

## C[C@](N)(CO)CCc1ccc(Sc2cccc(OCc3ccccc3)c2)cc1Cl [Compound B, (R)-2-amino-4-[4-(3-benzyloxyphenylthio)-2-chlorophenyl]-2-methylbutane-1-ol]
[1]; [2]
  First symptoms on day: >14 days
  Number of Animals with EAE/total Day 12: 0/5
  Number of Animals with EAE/total Day 14: 0/5
[1]
  Prevention of disease symptoms in the acute EAE model: lead to prevention of disease symptoms

## CC[C@](N)(CO)CCc1ccc(Sc2cccc(OCc3ccccc3)c2)cc1Cl [Compound C, (R)-2-amino-4-[4-(3-benzyloxyphenylthio)-2-chlorophenyl]-2-ethylbutane-1-ol]
[1]; [2]
  First symptoms on day: >14 days
  Number of Animals with EAE/total Day 12: 0/5
  Number of Animals with EAE/total Day 14: 0/5
[1]
  Prevention of disease symptoms in the acute EAE model: lead to prevention of disease symptoms

## NC(CO)(CO)CCc1ccc(Sc2cccc(OCc3ccccc3)c2)cc1Cl [Compound A, 2-amino-2-[4-(3-benzyloxyphenylthio)-2-chlorophenyl]ethyl-propane-1,3-diol]
chronic-relapsing EAE
  Prevention of clinical relapses in the chronic relapsing EAE model: prevents clinical relapses
Chronic EAE; 0.3, 0.1 or 0.03 mg/kg/d orally, day 12 to day 33 post-immunization
  Inhibition of chronic EAE: effectively inhibits chronic EAE
Chronic EAE; each dose (0.3, 0.1, 0.03 mg/kg/d orally), statistical analysis
  Clinical disease compared to vehicle group: significant reduction in clinical disease
[1]; [3]
  First symptoms on day: 9 days
  Number of Animals with EAE/total Day 12: 0/5
  Number of Animals with EAE/total Day 14: 3/4
[1]; [4]
  First symptoms on day: 14 days
  Number of Animals with EAE/total Day 12: 0/5
  Number of Animals with EAE/total Day 14: 1/5
[1]; [2]
  First symptoms on day: >14 days
  Number of Animals with EAE/total Day 12: 0/5
  Number of Animals with EAE/total Day 14: 0/5
[1]
  Prevention of disease symptoms in the acute EAE model: lead to prevention of disease symptoms; also recorded: prevents disease symptoms
